# Measured values from patent publication US12435320B2, “CRISPR having or associated with destabilization domains” (The Broad Institute, Inc., priority 2014, dated 2025).
# Tests used:
# [1] = tested on: Factor VII; details: LNP siRNA systems containing these lipids; hepatocytes in vivo; cited from earlier work
# [2] = tested on: EGFP gene; experiment: Decrease in EGFP positive cells in an EGFP-producing cell line treated with SpCas9-DD fusion protein and guide RNA; assay type: cell-based; details: DHFR-SpCas9-DHFR (DSPD); increasing dosages of TMP
# [3] = tested on: EGFP gene; experiment: U2OS.EGFP knockdown assay, loss of EGFP fluorescence, high-content automated microscope imaging; assay type: cell-based; details: ligand added to the DD-SpCas9-DD fusion protein and EGFP guide RNA
# Text: The low throughput, flow cytometry-readout was replaced with a high-throughput readout using a high-content, automated microscope imaging. This assay can be run in a 96-well format and the data can be analyzed by a high-throughput image analysis platform, called ImageExpress.
# [4] = Double nicking indel formation with sgRNA pairs; assay type: cell-based; details: substitution of Cas9n with Cas9H840A with a given sgRNA pair; eukaryotic system
# Text: Aspects of the invention relate to the expression of the gene product being decreased or a template polynucleotide being further introduced into the DNA molecule encoding the gene product or an intervening sequence being excised precisely by allowing the two 5′ overhangs to reanneal and ligate or the activity or function of the gene product being altered or the expression of the gene product being increased. In an embodiment of the invention, the gene product is a protein. Only sgRNA pairs creating 5′ overhangs with less than 8 bp overlap between the guide sequences (offset greater than −8 bp) were able to mediate detectable indel formation. […] Nonetheless, a pair of sgRNAs that will generate a 5′ overhang with Cas9n should in principle generate the corresponding 3′ overhang instead, and double nicking. […] Accordingly, in some embodiments, a recombination template is also provided. A recombination template may be a component of another vector as described herein, contained in a separate vector, or provided as a separate polynucleotide. In some embodiments, a recombination template is designed to serve as a template in homologous recombination, such as within or near a target sequence nicked or cleaved by a CRISPR enzyme as a part of a CRISPR complex. […]
# [5] = tested on: human embryonic stem cells (hESCs); experiment: Mutagenic NHEJ by Cas9-D10A nickase in human embryonic stem cells; assay type: cell-based
# Text: The CRISPR enzyme is Cas9, and may be Cas9 from S. pyogenes or S. pneumoniae. In some embodiments, the CRISPR enzyme directs cleavage of one or both strands at the location of a target sequence, such as within the target sequence and/or within the complement of the target sequence. In some embodiments, the CRISPR enzyme directs cleavage of one or both strands within about 1, 2, 3, 4, 5, 6, 7, 8, 9, 10, 15, 20, 25, 50, 100, 200, 500, or more base pairs from the first or last nucleotide of a target sequence. In some embodiments, a vector encodes a CRISPR enzyme that is mutated to with respect to a corresponding wild-type enzyme such that the mutated CRISPR enzyme lacks the ability to cleave one or both strands of a target polynucleotide containing a target sequence. […] In some embodiments, a Cas9 nickase may be used in combination with guide sequenc(es), e.g., two guide sequences, which target respectively sense and antisense strands of the DNA target. This combination allows both strands to be nicked and used to induce NHEJ.
# [6] = tested on: Mutants of human FKBP12; details: cited from earlier work
# [7] = tested on: mammalian DHFR (DHFRts); details: addition to cells expressing DHFRts; cited from earlier work
# [8] = tested on: dystrophin; details: across 48 weeks; cited from earlier work
compound,measurement,setting,value
"CCCCC/C=C\C/C=C\CCCCCCCC(=O)OCC(CN(C)C)OC(=O)CCCCCCC/C=C\C/C=C\CCCCC (stereo not shown) [DLinDAP, 1,2-dilineoyl-3-dimethylammonium-propane]",gene silencing potency series,[1],DLinKC2-DMA>DLinKDMA>DLinDMA>>DLinDAP
"CCCCC/C=C\C/C=C\CCCCCCCCOCC(CN(C)C)OCCCCCCCC/C=C\C/C=C\CCCCC (stereo not shown) [DLinDMA, 1,2-dilinoleyloxy-3-N,N-dimethylaminopropane]",gene silencing potency series,[1],DLinKC2-DMA>DLinKDMA>DLinDMA>>DLinDAP
"COc1cc(Cc2cnc(N)nc2N)cc(OC)c1OC [TMP, trimethoprim]",effect of ligand addition on the effect of the SpCas9-DD fusion protein,[2],increased the effect of the SpCas9-DD fusion protein in a dose-dependent manner
same,Effect of added DD ligand on the fusion protein's reduction of EGFP fluorescence,[3],increased the effect of the DSPD fusion protein in a dose-dependent manner
Cas9H840A: Cas9 with the H840A mutation,indel formation,[4],no indel formation is observed
Cas9-D10A: Cas9 nickase with the D10A mutation,efficiency relative to nuclease (regular Cas9 without D10 mutation),"[5]; double nickase, two sgRNAs targeted to different strands at the same location, hESCs",about 50%
same,induction of NHEJ and indels,"[5]; single nickase, with a single sgRNA",unable to induce NHEJ and create indels
CC[C@H](C(=O)N1CCCC[C@H]1C(=O)O[C@H](CCc1ccc(OC)c(OC)c1)c1cccc(OCCN2CCOCC2)c1)c1cc(OC)c(OC)c(OC)c1 [Shield-1],binding and stabilization of the DD,[6],bind to and stabilize the DD in a dose-dependent manner
CN(Cc1cnc2nc(N)nc(N)c2n1)c1ccc(C(=O)N[C@@H](CCC(=O)O)C(=O)O)cc1 [methotrexate],degradation of DHFRts protein,[7],inhibited degradation of the protein partially
"1,2-dilinoleyloxy-keto-N,N-dimethyl-3-aminopropane [DLinKDMA]",gene silencing potency series,[1],DLinKC2-DMA>DLinKDMA>DLinDMA>>DLinDAP
eteplirsen,"Dystrophin positive fibers compared to baseline, average",[8],47%
same,Functional benefit,[8],significant functional benefit
"CCCCC/C=C\C/C=C\CCCCCCCCC1(CCCCCCCC/C=C\C/C=C\CCCCC)OCC(CCN(C)C)O1 (stereo not shown) [DLinKC2-DMA, 1,2-dilinoleyl-4-(2-dimethylaminoethyl)-[1,3]-dioxolane]",gene silencing potency series,[1],DLinKC2-DMA>DLinKDMA>DLinDMA>>DLinDAP
